Assays:
[1] = test system: dogs; assay: Oral animal toxicology at multiple dose levels; assay type: in vivo
Method: (§1) The safety of mavacamten has been evaluated in rats and dogs at multiple dose levels (0.06 to 10 mg/kg/day) orally. […] Plasma exposures (AUC) at the NOAEL in rats and dogs were 0.1 and 0.3 times, respectively, human exposure (AUC) at the MRHD.

[2] = test system: rats; assay: Oral animal toxicology at multiple dose levels; assay type: in vivo
Method: as §1

[3] = test system: lymphocyte; assay: Human in vitro lymphocyte clastogenicity assay; assay type: cell-based
[4] = test system: adults with symptomatic NYHA class II and III obstructive HCM; assay: EXPLORER-HCM Phase 3, double-blind, randomized, placebo-controlled trial; assay type: in vivo, human
Method: The safety of MAVACAMTEN was evaluated in EXPLORER-HCM, a Phase 3, double-blind, randomized, placebo-controlled trial. Of the 251 adults with obstructive HCM, 123 patients were treated with MAVACAMTEN 2.5-15 mg daily and 128 were treated with placebo.
The efficacy of MAVACAMTEN was evaluated in EXPLORER-HCM (NCT-03470545) a Phase 3, double-blind, randomized, placebo-controlled, multicenter, international, parallel-group trial in 251 adults with symptomatic NYHA class II and III obstructive HCM, LVEF≥55%, and Valsalva LVOT peak gradient ≥50 mmHg at rest or with provocation.
Patients on dual therapy with beta blocker and calcium channel blocker treatment or monotherapy with disopyramide or ranolazine were excluded. Patients with a known infiltrative or storage disorder causing cardiac hypertrophy that mimicked obstructive HCM, such as Fabry disease, amyloidosis, or Noonan syndrome with left ventricular hypertrophy, were also excluded.
Patients were randomized in a 1:1 ratio to receive either a starting dose of 5 mg of MAVACAMTEN or placebo once daily for 30 weeks. Treatment assignment was stratified by baseline NYHA functional class, baseline use of beta blockers, and type of ergometer (treadmill or exercise bicycle).
All patients were initiated on MAVACAMTEN 5 mg (or matching placebo) once daily, and the dose was periodically adjusted to optimize patient response (decrease in LVOT gradient with Valsalva maneuver) and maintain LVEF≥50%. The dose was also informed by plasma concentrations of MAVACAMTEN.
The primary composite functional endpoint, assessed at 30 weeks, was defined as the proportion of patients who achieved either improvement of […] (pVO2) by ≥1.5 mL/kg/min plus improvement in NYHA class by at least 1 or improvement of pVO2 by ≥3.0 mL/kg/min plus no worsening in NYHA class.
The treatment effects of MAVACAMTEN on LVOT obstruction, functional capacity, and health status were assessed by change from baseline through Week 30 in post-exercise LVOT peak gradient, change in pVO2, proportion of patients with improvement in NYHA class, Kansas City Cardiomyopathy Questionnaire-23 (KCCQ-23) Clinical Summary Score (CSS), and Hypertrophic Cardiomyopathy Symptom Questionnaire (HCMSQ) Shortness of Breath (SoB) domain score.
Missing data were not imputed to summarize the baseline and change from baseline to Week 30 values. Difference in mean change from baseline between treatment groups was estimated using a mixed model for repeated measures.

[5] = Baseline to Week 30, vs Placebo

CC(C)n1c(=O)cc(N[C@@H](C)c2ccccc2)[nH]c1=O [mavacamten, (S)-3-Isopropyl-6-((1-phenylethyl)amino)pyrimidine-2,4(1H,3H)-dione]
Other findings [1]: QTc prolongation
Plasma exposure (AUC) at the NOAEL vs human exposure (AUC) at the MRHD [1]: 0.3 times
Noted toxicities ([1]; 0.06 to 10 mg/kg/day orally): echocardiographic findings, reduction in systolic function, cardiac dilation, and death
Other findings [2]: cardiac osseous metaplasia
Plasma exposure (AUC) at the NOAEL vs human exposure (AUC) at the MRHD [2]: 0.1 times
heart weights [2]: increased heart weights
Noted toxicities ([2]; 0.06 to 10 mg/kg/day orally): echocardiographic findings, reduction in systolic function, cardiac dilation, and death
genotoxicity [3]: not genotoxic
Change from baseline pVO2 ≥1.5 mL/kg/min and decreased NYHA ([4]; 30 Weeks, N = 123): 41 (33%)
Change from baseline pVO2 ≥3 mL/kg/min and NYHA not increased ([4]; 30 Weeks, N = 123): 29 (23%)
Total responders (primary endpoint) ([4]; 30 Weeks, N = 123): 45 (37%)
Change from baseline pVO2 ≥1.5 mL/kg/min and decreased NYHA, Difference (95% CI) ([4]; 30 Weeks, vs Placebo): 19% (9, 30)
Change from baseline pVO2 ≥3 mL/kg/min and NYHA not increased, Difference (95% CI) ([4]; 30 Weeks, vs Placebo): 13% (3, 22)
Total responders, Difference (95% CI) ([4]; 30 Weeks, vs Placebo): 19% (9, 30)
Number (%) with NYHA Class improved ≥1 ([4]; Baseline to Week 30, N = 123): 80 (65%)
Post-Exercise LVOT gradient, mean (SD) change ([4]; Baseline to Week 30, N = 123): −47 (40) mmHg
pVO2, mean (SD) change ([4]; Baseline to Week 30, N = 123): 1.4 (3.1) mL/kg/min
NYHA Class improved ≥1, Difference (95% CI) [4, 5]: 34% (22%, 45%)
Post-Exercise LVOT gradient, Difference (95% CI) [4, 5]: −35 (−43, −28) mmHg
pVO2, Difference (95% CI) [4, 5]: 1.4 (0.6, 2.1) mL/kg/min
Syncope leading to discontinuation, patients ([4]; EXPLORER-HCM): 0.8%
patients in whom reductions in LVEF to <50% were asymptomatic ([4]; EXPLORER-HCM): 3 of the 7
patients who temporarily interrupted their dose due to LVEF<50% ([4]; EXPLORER-HCM): Three
patients with reversible reductions in LVEF to <50% while on treatment, n (%) ([4]; EXPLORER-HCM): 7 (6%)
Adverse reaction: dizziness, patients ([4]; EXPLORER-HCM, 2.5-15 mg daily): 27%
Adverse reaction: syncope, patients ([4]; EXPLORER-HCM, 2.5-15 mg daily): 6%
mean (SD) change from baseline in Valsalva LVOT gradient ([4]; Week 30): −49 (34) mmHg
mean (SD) change from baseline in resting LVOT gradient ([4]; Week 30): −39 (29) mmHg
proportion of patients who met the primary endpoint ([4]; Week 30): 37%
secondary endpoints (post-exercise LVOT peak gradient, pVO2, NYHA class, KCCQ-23 CSS, HCMSQ SoB) ([4]; Week 30): greater improvement compared to the placebo group across all secondary endpoints
HCMSQ SoB, Difference, LS Mean (95% CI) ([4]; Week 30, vs Placebo): −2 (−2, −1)
KCCQ-23 CSS, Difference, LS Mean (95% CI) ([4]; Week 30, vs Placebo): 9 (5, 13)
reduction in NT-proBNP greater than for placebo ([4]; Week 30 compared with baseline): 80%
LVEF following interruption in patients with LVEF <50% ([4]; all 7 patients): LVEF recovered
Subgroup analysis of the primary composite functional endpoint ([4]; all subgroups analyzed (FIG. 17)): consistently favored MAVACAMTEN across all subgroups analyzed
benefit in patients on background beta blocker therapy compared to those who were not ([4]; attenuated improvement in pVO2): smaller
KCCQ-23 PL, Change from Baseline to Week 30, Mean (SD) ([4]; in vivo): 15 (17)
KCCQ-23 TSS, Change from Baseline to Week 30, Mean (SD) ([4]; in vivo): 12 (15)
KCCQ-23 CSS, Change from Baseline to Week 30, Mean (SD) ([4]; n = 99): 14 (14)
HCMSQ SoB, Change from Baseline to Week 30, Mean (SD) ([4]; n = 108): −3 (3)
mean (SD) absolute change from baseline in LVEF ([4]; over the 30-week treatment period): −4% (8)
